Results reported in patent US12157746B2, “Tetrahydro-1H-pyrazino[2,1-a]isoindolylquinoline compounds for the treatment of autoimmune disease” (F. HOFFMANN-LA ROCHE AG, priority 2018, dated 2024).

Tests used:
human TLR9 = target: T1, human TLR9 (Homo sapiens, UniProt Q9NR96); assay: HEK293-Blue-hTLR-9 cells assay; assay type: cell-based; conditions: HEK293-Blue-hTLR9 cells, ODN2006 stimulation, 20 hrs, SEAP reporter; read-out: HEK/hTLR9 IC50
T1 sequence (Q9NR96 26-1032): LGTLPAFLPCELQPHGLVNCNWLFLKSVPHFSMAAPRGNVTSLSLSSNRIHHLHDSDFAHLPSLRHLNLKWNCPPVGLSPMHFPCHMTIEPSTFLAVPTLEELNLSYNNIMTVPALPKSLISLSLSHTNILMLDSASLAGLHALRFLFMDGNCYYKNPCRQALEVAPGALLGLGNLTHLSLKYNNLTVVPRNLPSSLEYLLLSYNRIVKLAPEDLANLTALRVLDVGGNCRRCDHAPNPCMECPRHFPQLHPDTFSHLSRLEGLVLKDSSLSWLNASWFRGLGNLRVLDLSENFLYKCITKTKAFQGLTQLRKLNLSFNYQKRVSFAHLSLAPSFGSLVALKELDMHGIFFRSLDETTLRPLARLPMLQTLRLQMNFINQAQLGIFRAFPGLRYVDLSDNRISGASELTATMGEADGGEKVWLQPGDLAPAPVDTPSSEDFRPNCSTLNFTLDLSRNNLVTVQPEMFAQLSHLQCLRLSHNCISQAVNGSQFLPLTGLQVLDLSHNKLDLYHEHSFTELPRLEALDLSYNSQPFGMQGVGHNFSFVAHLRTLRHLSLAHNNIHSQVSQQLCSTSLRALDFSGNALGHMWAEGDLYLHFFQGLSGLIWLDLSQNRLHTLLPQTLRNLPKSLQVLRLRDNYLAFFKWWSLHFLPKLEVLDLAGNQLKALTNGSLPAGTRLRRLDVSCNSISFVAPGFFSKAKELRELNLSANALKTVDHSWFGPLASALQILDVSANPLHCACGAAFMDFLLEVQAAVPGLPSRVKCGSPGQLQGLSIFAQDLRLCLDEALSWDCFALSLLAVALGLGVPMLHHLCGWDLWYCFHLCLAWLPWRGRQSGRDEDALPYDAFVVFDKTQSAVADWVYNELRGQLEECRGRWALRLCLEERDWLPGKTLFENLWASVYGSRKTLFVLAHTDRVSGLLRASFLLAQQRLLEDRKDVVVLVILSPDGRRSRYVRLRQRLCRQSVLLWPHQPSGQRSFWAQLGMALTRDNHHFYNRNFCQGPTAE
Method in brief: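 Antagonist mode in HEK293-Blue hTLR9 reporter cells (SEAP under NF-κB/AP-1 sites), stimulated with ODN2006 added from a 20 uM solution. Serially diluted compound (1% DMSO final) was incubated 20 hrs at 37° C. Supernatant SEAP was developed with QUANTI-Blue for 2 h at 37° C and read at 620˜655 nm.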

[1] = Human microsomal stability assay; assay type: in vitro ADME; conditions: human liver microsomes 0.5 mg/mL, 37° C., pH 7.4, NADPH regenerating system, 0-30 minutes
Method in brief: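 Human liver microsomes (0.5 mg/mL) with […] compound in 100 mM potassium phosphate, pH 7.4, 37° C; reaction started with NADPH regenerating system after 10 min preincubation. Parent remaining at 0–30 min quantified by LC-MS/MS; clearance binned low (<7.0), medium (7.0-16.2) or high (16.2-23.2) mL/min/kg.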

Structure (SMILES)	IC50 (human TLR9)	CL (h) [1]
C[C@@H]1CN(c2ccc(C#N)c3ncccc23)C[C@@H]2c3ccc(N[C@@H]4CCCNC4)cc3CN12 [Example 65, 5-[(4R,10bS)-4-methyl-8-[[(3R)-3-piperidyl]amino]-3,4,6,10b-tetrahydro-1H-pyrazino[2,1-a]isoindol-2-yl]quinoline-8-carbonitrile]	0.0958 µM	6.2 mL/min/kg
CO[C@H]1CNC[C@H]1Nc1ccc2c(c1)CN1[C@H](C)CN(c3ccc(C#N)c4ncccc34)C[C@H]21 [Example 61, 5-[(4R,10bS)-8-[[(3R,4S)-4-methoxypyrrolidin-3-yl]amino]-4-methyl-3,4,6,10b-tetrahydro-1H-pyrazino[2,1-a]isoindol-2-yl]quinoline-8-carbonitrile]	0.093 µM	7.3 mL/min/kg
C[C@@H]1CN(c2ccc(C#N)c3ncccc23)C[C@@H]2c3ccc(NCC4(F)CNC4)cc3CN12 [Example 69, 5-[(4R,10bS)-8-[(3-fluoroazetidin-3-yl)methylamino]-4-methyl-3,4,6,10b-tetrahydro-1H-pyrazino[2,1-a]isoindol-2-yl]quinoline-8-carbonitrile]	0.171 µM	8.4 mL/min/kg
C[C@@H]1CN(c2ccc(C#N)c3ncccc23)C[C@@H]2c3ccc(N4CCNCC4)cc3CN12 [Example 1, 5-[(4R,10bS)-4-methyl-8-piperazin-1-yl-3,4,6,10b-tetrahydro-1H-pyrazino[2,1-a]isoindol-2-yl]quinoline-8-carbonitrile]	0.106 µM	6.8 mL/min/kg
Cc1ccc(N2C[C@@H](C)N3Cc4cc(N[C@H]5CNC[C@H]5F)ccc4[C@H]3C2)c2cccnc12 [Example 75, (4R,10bS)—N-[(3S,4R)-4-fluoropyrrolidin-3-yl]-4-methyl-2-(8-methyl-5-quinolyl)-3,4,6,10b-tetrahydro-1H-pyrazino[2,1-a]isoindol-8-amine]	0.203 µM	6.2 mL/min/kg
CO[C@H]1CNC[C@@H]1Nc1ccc2c(c1)CN1[C@H](C)CN(c3ccc(C#N)c4ncccc34)C[C@H]21 [Example 62, 5-[(4R,10bS)-8-[[(3S,4S)-4-methoxypyrrolidin-3-yl]amino]-4-methyl-3,4,6,10b-tetrahydro-1H-pyrazino[2,1-a]isoindol-2-yl]quinoline-8-carbonitrile]	0.0845 µM	7.5 mL/min/kg
C[C@@H]1CN(c2ccc(C#N)c3ncccc23)C[C@@H]2c3ccc(NCCN4CC[C@H](O)C4)cc3CN12 [Example 68, 5-[(4R,10bS)-8-[2-[(3S)-3-hydroxypyrrolidin-1-yl]ethylamino]-4-methyl-3,4,6,10b-tetrahydro-1H-pyrazino[2,1-a]isoindol-2-yl]quinoline-8-carbonitrile]	0.0735 µM	7.9 mL/min/kg
C[C@H]1CN(c2ccc(C#N)c3ncccc23)C[C@H]2c3ccc(N4CCNCC4)cc3CN12 [Example 2, 5-[(4S,10bR)-4-methyl-8-piperazin-1-yl-3,4,6,10b-tetrahydro-1H-pyrazino[2,1-a]isoindol-2-yl]quinoline-8-carbonitrile]	0.125 µM	6.8 mL/min/kg
N#Cc1ccc(N2CCN3Cc4cc(N5CCNCC5)ccc4C3C2)c2cccnc12 (stereo not drawn) [Example 3, 5-(8-piperazin-1-yl-3,4,6,10b-tetrahydro-1H-pyrazino[2,1-a]isoindol-2-yl)quinoline-8-carbonitrile]	0.0877 µM	6.2 mL/min/kg
CO[C@@H]1CNC[C@@H]1Nc1ccc2c(c1)CN1[C@H](C)CN(c3ccc(C#N)c4ncccc34)C[C@H]21 [Example 60, 5-[(4R,10bS)-8-[[(3S,4R)-4-methoxypyrrolidin-3-yl]amino]-4-methyl-3,4,6,10b-tetrahydro-1H-pyrazino[2,1-a]isoindol-2-yl]quinoline-8-carbonitrile]	0.113 µM	7.4 mL/min/kg
C[C@@H]1CN(c2ccc(Cl)c3ncccc23)C[C@@H]2c3ccc(N[C@H]4CNC[C@H]4F)cc3CN12 [Example 79, (4R,10b)-2-(8-chloro-5-quinolyl)-N-[(3S,4R)-4-fluoropyrrolidin-3-yl]-4-methyl-3,4,6,10b-tetrahydro-1H-pyrazino[2,1-a]isoindol-8-amine]	0.113 µM	6.2 mL/min/kg
C[C@@H]1CN(c2ccc(C#N)c3ncccc23)C[C@@H]2c3cc(F)c(N4CC5CNCC(C4)O5)cc3CN12 [Example 85, 5-[(4R,10bS)-9-fluoro-4-methyl-8-(9-oxa-3,7-diazabicyclo[3.3.1]nonan-3-yl)-3,4,6,10b-tetrahydro-1H-pyrazino[2,1-a]isoindol-2-yl]quinoline-8-carbonitrile]	0.151 µM	7.8 mL/min/kg
